Read-outs that look alike come from different tables or passages of the source.

Common to all, as to type: cell-based
Assay [1] has as its system MDA-MB-231 line (mammary adenocarcinoma cell line). Put plainly: Cell proliferation (ATPLite) on MDA-MB-231 line. The settings on record: read 72 hours after addition. On the procedure:
(§1) The lines N1E115 (ATCC, CRL2263), MDA-MB-231 (ATCC, HTB26) and HSC-1 (Health Science Research Resources Bank, JCRB1015) were cultured in DMEM medium (Dulbecco's Modified Eagle Medium) supplemented with 2 mM of L-Glutamine (Sigma, G7513) and 10% foetal calf serum (Hyclone, SH30109.03) or 20% for the HSC-1 cells. The HCC-1937 (ATCC, CRL2336) and A549 (ATCC, CCL185) lines were cultured in RPMI medium (Roswell Park Memorial Institute Medium) supplemented with 10% foetal calf serum and 2 mM of L-Glutamine. Finally, the SCC114 (DSMZ, ACC662) line was cultured in MEM medium (Minimum Essential Medium Eagle) supplemented with 10% foetal calf serum and 2 mM of L-Glutamine. Initially, in 96-well plates (Perkin Elmer, 6005668), the cells were seeded in their respective culture media with 750 cells per well for N1E115; 1000 cells per well for SCC114 and A549; 2000 cells per well for HCC-1937 and HSC-1; 2500 cells per well for MDA-MB-231. Cascade dilution of each compound was performed in dimethylsulfoxide (DMSO) (Sigma, D8418) from 10 mM stock solutions in 100% DMSO. Each of the dilutions was added to the cells 24 hours after seeding. Under these conditions the final solvent concentration was 0.1% DMSO. Reading of cell proliferation was conducted 72 hours after addition of products with the ATPLite kit (Perkin Elmer, 6016947) and following the manufacturer's directions except in the case of the HCC-1937 line for which this reading was carried out 48 hours after treatment. Analysis of proliferation results was performed by comparing with conditions in which solely the vehicle was added to the cells. The dose-response curves obtained were analysed using Prism 4.03 software (GraphPad Software Inc.) to determine the concentration of each compound allowing 50% inhibition of cell proliferation (IC50).
(§2) As examples, the cytotoxic properties of some compounds of the invention evaluated on the lines A549 (lung cancer cell line), MDA-MB-231 line (mammary adenocarcinoma cell line), N1E115 (mouse brain neuroblastoma cell line), HCC-1937 line (primary ductam breast carcinoma cell line), HSC-1 (cutaneous squamous carcinoma cell line) and SCC114 line (oral squamous carcinoma cell line) are reported in Table 1, as compared with griseofulvin used as control product. The concentration values are expressed in micromolar units (μM).

The test system of assay [2] is SCC114 line (oral squamous carcinoma cell line). Put plainly: Cell proliferation (ATPLite) on SCC114 line. The settings on record: read 72 hours after addition. The method, then: as §1, §2
Background: In ATP-based viability assays light output follows the ATP content of the culture.

Assay [3] deals with HSC-1 (cutaneous squamous carcinoma cell line). Put plainly: Cell proliferation (ATPLite) on HSC-1 line. The settings on record: 50% inhibition of cell proliferation, read 72 hours after addition. On the procedure: as §1, §2
The test system of assay [4] is HCC-1937 line (primary ductam breast carcinoma cell line). The experiment in a line: Cell proliferation (ATPLite) on HCC-1937 line. The settings on record: read 48 hours after treatment. The method, then:
as §1, §2

[5] abbreviates: 50% inhibition of cell proliferation.
[6] abbreviates: 50% inhibition of cell proliferation, read-out: IC50 (μM) HCC1937.
Setting [7] is: Homo sapiens, MDA-MB-231, 50% inhibition of cell proliferation.
The mark [8] stands for this setting: SCC114, 50% inhibition of cell proliferation.
Where [9] appears, read: Homo sapiens, HCC1937, 50% inhibition of cell proliferation.

One may read the IC50 as the concentration needed to halve the response being measured. Turning to `COc1cc(OC)c2c(c1Cl)O[C@]1(C2=O)C2=C(C[C@@H](c3ccc(F)cc3)O2)C(=O)C[C@H]1C` [compound 35, (2S,2′S,6R)-7′-chloro-2-(4-fluorophenyl)-4′,6′-dimethoxy-6-methyl-5,6-dihydro-2H,3′H-2,7′-spirobi[benzofuran]-3′,4(3H)-dione], the IC50 in assay [1] (setting [5]) was 0.25 µM; in assay [2] (setting [5]) it was 0.17 µM; in assay [3] it was 0.38 µM; in assay [4] (setting [6]), > 10 µM.
Consider `COc1cc(OC)c2c(c1Cl)O[C@]1(C2=O)C2=C(C[C@H](c3ccccc3F)O2)C(=O)C[C@H]1C` [compound 37, (2R,2′S,6R)-7′-chloro-2-(2-fluorophenyl)-4′,6′-dimethoxy-6-methyl-5,6-dihydro-2H,3′H-2,7′-spirobi[benzofuran]-3′,4(3H)-dione], for which the IC50 in assay [1] (setting [5]) was 0.27 µM; in assay [2] (setting [5]), 0.47 µM; in assay [3], 1.4 µM; in assay [4] (setting [6]) it was > 10 µM.
In the case of `COc1cc(OC)c2c(c1Cl)O[C@@]1(C=C([S+]([O-])Cc3ccccc3)C(=O)C[C@H]1C)C2=O` (stereo partly drawn) [compound 97, (1′S,6′R)-3′-(benzylsulfinyl)-7-chloro-4,6-dimethoxy-6′-methyl-3H-spiro[benzofuran-2,1′-cyclohex[2]ene]-3,4′-dione], the IC50 in assay [2] (setting [5]) came to 0.021 µM; in assay [3], 0.14 µM.
For `COc1cc(OC)c2c(c1Cl)O[C@@]1(C=C(S(=O)(=O)c3ccccc3)C(=O)C[C@H]1C)C2=O` [compound 98, (1′S,6′R)-7-chloro-4,6-dimethoxy-6′-methyl-3′-(phenylsulfonyl)-3H-spiro[benzofuran-2,1′-cyclohex[2]ene]-3,4′-dione], the IC50 in assay [2] (setting [5]) was 0.41 µM; in assay [3], 0.76 µM.
Regarding `COc1cc(OC)c2c(c1Cl)O[C@]1(C2=O)C(=O)c2c(nn(C)c2-c2ccccc2Cl)C[C@H]1C` [compound 115, (2S,6′R)-7-chloro-3′-(2-chlorophenyl)-4,6-dimethoxy-2′,6′-dimethyl-6′,7′-dihydro-3H-spiro[benzofuran-2,5′-indazole]-3,4′(2′H)-dione], the IC50 in assay [1] (setting [7]) was 0.64 µM; in assay [2] (setting [8]), 0.73 µM; in assay [3], 1.3 µM; in assay [4] (setting [9]) it was > 10 µM.
As for `COc1cc(OC)c2c(c1Cl)O[C@]1(C2=O)C(=O)c2c(nn(C)c2-c2ccccc2Cl)C[C@H]1C` [compound 126, (2S,3′R,6′R)-7-chloro-3′-(2-chlorophenyl)-4,6-dimethoxy-2′,6′-dimethyl-6′,7′-dihydro-3H-spiro[benzofuran-2,5′-indazole]-3,4′(2′H)-dione], the IC50 was 0.73 µM in assay [2] (setting [5]) and 2.3 µM in assay [3].
As to `COc1cc(OC)c2c(c1Cl)O[C@]1(C2=O)C(=O)c2c(nn(C)c2-c2ccccc2Br)C[C@H]1C` [compound 130, (2S,3′S,6′R)-7-chloro-3′-(2-bromophenyl)-4,6-dimethoxy-2′,6′-dimethyl-6′,7′-dihydro-3H-spiro[benzofuran-2,5′-indazole]-3,4′(2′H)-dione], the IC50 in assay [2] (setting [5]) was 0.14 µM; in assay [3] it was 0.25 µM.
For `COc1cc(OC)c2c(c1Cl)O[C@]1(C2=O)C(=O)c2c(nn(C)c2-c2ccccc2C(F)(F)F)C[C@H]1C` [compound 135, (2S,3′S,6′R)-7-chloro-4,6-dimethoxy-2′,6′-dimethyl-3′-(2-(trifluoromethyl)phenyl)-6′,7′-dihydro-3H-spiro[benzofuran-2,5′-indazole]-3,4′(2′H)-dione] the same measures were 0.51 µM and 1.3 µM.
With `COC(=O)C1=C[C@H](c2ccsc2)C2=C(C[C@@H](C)[C@]3(Oc4c(Cl)c(OC)cc(OC)c4C3=O)C2=O)N1` [compound 165, (2S,4′S,7′R)-methyl 7-chloro-4,6-dimethoxy-7′-methyl-3,5′-dioxo-4′-(thiophen-3-yl)-4′,5′,7′,8′-tetrahydro-1′H,3H-spiro[benzofuran-2,6′-quinoline]-2′-carboxylate], the IC50 in assay [1] (setting [7]) was 0.17 µM; in assay [2] (setting [8]), 0.23 µM; in assay [3], 0.5 µM; in assay [4] (setting [9]), > 10 µM.
